Laboratory results published in patent US8669256B2, “Substituted thieno[2,3-b]pyrazine compounds as modulators of B-Raf kinase activity” (Merck Sharp & Dohme B.V., priority 2010, dated 2014).
Where two headings read alike, the source gives them in different places.

Tests used:
[1] = tested on: phosphorylation of ERK1/2 in A375 cells containing mutant B-Raf (V600E); assay: Phospho-ERK FACE assay in A375 (B-Raf mutated) melanoma cell line; format: cell-based; settings: Homo sapiens, read-out: IC50, A375 melanoma phospho-ERK assay
Method: The B-Raf activity can also be determined in a B-Raf mutated melanoma cell line, such as the A375 cell line. Inhibition of phosphorylation of ERK1/2 can be measured using a Fast Activated Cell-based ELISA (FACE) from Active Motif (Carlsbad, U.S.A., CA). E.g. A375 cells, which are cells containing a mutant form of B-Raf (V600E) and thus contain high levels of phosphorylated ERK, can be incubated with Raf inhibitors. Then cells can be incubated with anti-phospho-ERK antibody and subsequently with horse radish peroxidase (HRP)-labeled secondary antibody. Finally, chemiluminescence reagents can be added, which react with HRP, to give a luminescence signal.
Determination of B-Raf Activity Using a A375 (B-Raf mutated) Melanoma Cell Line (Phospho-ERK FACE Assay)
Inhibition of phosphorylation of ERK1/2 was measured using a Fast Activated Cell-based ELISA (FACE) from Active Motif (Carlsbad, U.S.A., CA). Briefly, A375 cells, which are cells containing a mutant form of B-Raf (V600E) and thus contain high levels of phosphorylated ERK, were incubated for 2 hours with Raf inhibitors. Then, cells were fixed with paraformaldehyde, washed and following quenching and blocking, incubated with anti-phospho-ERK antibody, and as a control, on a separate plate, with ERK antibody. After washing and removal of the primary antibodies, the fixed cells were incubated with horse radish peroxidase (HRP)-labeled secondary antibody. Finally, chemiluminescence reagents were added, which react with HRP, to give a luminescence signal.
Detailed protocol: A375 cells were cultured in DMEM/F12 (Dulbecco's Modified Eagle Medium Nutrient Mixture F-12) (Invitrogen), supplemented with 10% fetal bovine serum (FBS) (Biowhittaker), 100 U/ml penicillin G and 100 μg/ml streptomycin (Gibco). For the phospho ERK assay, cells were seeded at a density of 15,000 cells/well in 100 μl culture medium in 96-well plates and incubated in a humidified atmosphere at 5% CO2 and 37° C. After 24 hours, cells were washed with DMEM/F12 supplemented with 0.1% FBS (assay medium 120 μl of assay medium was added and the plates were incubated overnight in a humidified atmosphere at 5% CO2 and 37° C. The next day, the assay medium was removed and compounds diluted in assay medium were added to the cells. Final DMSO concentration in the assay was 1%. After 2 hours incubation, cells were fixed by replacing the assay medium with 100 μl of 4% formaldehyde (Bio-Connect, Huissen, The Netherlands) in PBS. After 20 minutes of incubation at room temperature, cells were washed three times with 200 μl wash buffer (0.1% (vol/vol) Triton X-100 in PBS from the FACE kit) followed by an incubation of 20 minutes with 100 μl quenching buffer, containing 1% (vol/vol) hydrogen peroxide (Thermo Fisher Scientific) and 0.1% (vol/vol) sodium azide (Sigma-Aldrich) in phosphate-buffered saline. Cells were washed two times with wash buffer, incubated for 1 hour with 100 μl antibody blocking buffer from the kit and washed two times again. 40 μl of diluted antibody against phosphorylated ERK1/2 (1:500 from the FACE kit) was added and incubated overnight at 4° C. The phospho-ERK antibody has been raised against a synthetic phospho-peptide corresponding to residues Thr202 and Tyr204 of human ERK1 and Thr185 and Tyr187 of human ERK2. For the detection of total ERK, antibody against ERK1 and ERK2 (1:500 from the FACE kit) was added. The excessive primary antibody was washed out, and 100 μl diluted HRP-conjugated anti-rabbit IgG (1:2000 from the FACE kit) was added and incubated for 1 hour at room temperature. Secondary antibody was removed and cells were washed 3 times with wash buffer and twice with PBS. 50 μl per well of FACE chemiluminescent working solution was added. Chemiluminescence was measured on an Envision Multilabel reader.

[2] = molecular target: T1, GST-tagged human recombinant active B-Raf (Δ1-415) (Homo sapiens, UniProt P15056); assay: B-Raf kinase activity, IMAP coupled assay (B-Raf/MEK1/ERK2, fluorescence polarization); format: biochemical; settings: bounds also given as pIC50 (>6, >7, >8); 60 min pre-incubation with compound, ATP 50 μM; read-out: IC50, B-Raf IMAP assay
T1 construct: GST; purchased Upstate/Millipore
T1 sequence (P15056 416-766, stated change not applied): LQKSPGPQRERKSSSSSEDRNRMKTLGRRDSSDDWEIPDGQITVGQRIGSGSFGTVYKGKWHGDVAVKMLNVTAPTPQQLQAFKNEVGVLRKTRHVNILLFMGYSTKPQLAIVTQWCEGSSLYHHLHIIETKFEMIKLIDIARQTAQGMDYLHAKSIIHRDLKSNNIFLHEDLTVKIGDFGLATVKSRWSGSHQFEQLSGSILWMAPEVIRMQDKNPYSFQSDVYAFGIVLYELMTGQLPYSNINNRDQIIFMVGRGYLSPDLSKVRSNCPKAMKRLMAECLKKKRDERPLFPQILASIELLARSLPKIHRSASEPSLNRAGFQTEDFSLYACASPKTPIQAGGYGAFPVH
Source text: (§1) In another assay the B-Raf kinase activity can be determined by using an IMAP assay (Immobilized Metal Assay for Phosphochemicals-based coupled assay). IMAP is a homogeneous fluorescence polarization (FP) assay based on affinity capture of phosphorylated peptide substrates. IMAP uses fluorescein-labeled peptide substrates that, upon phosphorylation by a protein kinase, bind to so called IMAP nanoparticles, which are derivatized with trivalent metal complexes. Such binding causes a change in the rate of the molecular motion of the peptide, and results in an increase in the FP value observed for the fluorescein label attached to the substrate peptide. In such an assay, B-Raf phosphorylates unactive MEK1. The phosphorylated MEK1 is capable of phosphorylating ERK2, which subsequently phosphorylates the fluorescein-labeled peptide substrate.
Determination of B-Raf Kinase Activity using an IMAP Assay
as §1, with “Inhibition of” for “In another assay the”, “was measured” for “can be determined by”, “Immobilized” for “IMAP assay (Immobilized”, “assay (IMAP).” for “assay).”, “this” for “such an”
Enzymes, substrate and ATP were diluted at all steps in Kinase Reaction buffer (10 mM Tris-HCl, 10 mM MgCl2, 0.01% Tween-20, 0.05% NaN3 pH 7.2, 1 mM DTT). The final volume at the kinase reaction step of the assay in the 384-well plate was 20 μl. The concentrations within brackets are final concentrations in the assay. B-Raf (GST-tagged human recombinant active B-Raf (Δ1-415), Upstate/Millipore; 0.2 U/ml) was pre-incubated with compounds or DMSO (1% final concentration) for 60 minutes at room temperature in the dark. Thereafter, MEK 1 (GST-tagged human recombinant unactive MEK1 (full-length); 64 ng/ml), ERK2 (GST-tagged human recombinant unactive ERK2 (full-length); 600 ng/ml), peptide substrate (Erktide, Molecular Devices; 50 nM) and ATP (50 μM) were added to the wells and the mix was incubated for another 60 minutes at 30° C. in the dark. Then, IMAP progressive binding buffer (75% 1× buffer A, 25% 1× buffer B, 1:900 Progressive Binding Reagent; Molecular Devices) was added followed by an incubation step of 60 minutes at room temperature in the dark. Finally, the FP signal was read on an Envision Multilabel reader (Perkin Elmer).

[3] = A-375, A375 cells, 2 hours incubation, between 1 μM and 100 nM (6<pIC50<7)
[4] = A-375, A375 cells, 2 hours incubation, class given as below 100 nM (pIC50>7)
[5] = A-375, A375 cells, 2 hours incubation, class between 10 μM and 1 μM (5<pIC50<6)

SMILES: CNc1cnc2sc(C(=O)Nc3cc(NC(=O)c4cccc(C(C)(C)C#N)c4)ccc3C)cc2n1 [Example 17, N-(5-(3-(2-cyanopropan-2-yl)benzamido)-2-methylphenyl)-2-(methylamino)thieno[2,3-b]pyrazine-6-carboxamide]
- IC50 [1, 3]: 100 to 1000 nM
- IC50 [2]: < 100 nM

SMILES: CCNc1c(C(=O)Nc2cc(NC(=O)c3cccc(C(C)(C)C#N)c3)ccc2C)sc2nccnc12 [Example 46, N-(5-(3-(2-cyanopropan-2-yl)benzamido)-2-methylphenyl)-7-(ethylamino)thieno[2,3-b]pyrazine-6-carboxamide]
- IC50 [1, 4]: < 100 nM
- IC50 [2]: < 100 nM

SMILES: C=Cc1c(C(=O)Nc2cc(NC(=O)c3cccc(C(C)(C)C#N)c3)ccc2C)sc2nccnc12 [Example 44, N-(5-(3-(2-cyanopropan-2-yl)benzamido)-2-methylphenyl)-7-vinylthieno[2,3-b]pyrazine-6-carboxamide]
- IC50 [1, 3]: 100 to 1000 nM
- IC50 [2]: < 10 nM

SMILES: Cc1ccc(NC(=O)c2cccc(C(C)(C)C#N)c2)cc1NC(=O)c1sc2nccnc2c1N [Example 1, 7-amino-N-(5-(3-(2-cyanopropan-2-yl)benzamido)-2-methylphenyl)thieno[2,3-b]pyrazine-6-carboxamide]
- IC50 [1, 4]: < 100 nM
- IC50 [2]: < 10 nM

SMILES: Cc1ccc(NC(=O)c2cccc(C(C)(C)C#N)c2)cc1NC(=O)c1sc2ncc(N3CCOCC3)nc2c1N [Example 9, 7-amino-N-(5-(3-(2-cyanopropan-2-yl)benzamido)-2-methylphenyl)-2-morpholinothieno[2,3-b]pyrazine-6-carboxamide]
- IC50 [1, 4]: < 100 nM
- IC50 [2]: < 10 nM

SMILES: Cc1cnc2sc(C(=O)Nc3cc(NC(=O)c4cccc(C(C)(C)C#N)c4)ccc3C)cc2n1 [Example 24, N-(5-(3-(2-cyanopropan-2-yl)benzamido)-2-methylphenyl)-2-methylthieno[2,3-b]pyrazine-6-carboxamide]
- IC50 [1, 3]: 100 to 1000 nM
- IC50 [2]: < 10 nM

SMILES: CCNc1cnc2sc(C(=O)Nc3cc(NC(=O)c4cccc(C(C)(C)C#N)c4)ccc3C)c(N)c2n1 [Example 7, 7-amino-N-(5-(3-(2-cyanopropan-2-yl)benzamido)-2-methylphenyl)-2-(ethylamino)thieno[2,3-b]pyrazine-6-carboxamide]
- IC50 [1, 4]: < 100 nM
- IC50 [2]: < 100 nM

SMILES: Cc1ccc(NC(=O)c2cccc(C(F)(F)F)c2F)cc1NC(=O)c1cc2nccnc2s1 [Example 38, N-(5-(2-fluoro-3-(trifluoromethyl)benzamido)-2-methylphenyl)thieno[2,3-b]pyrazine-6-carboxamide]
- IC50 [1, 3]: 100 to 1000 nM
- IC50 [2]: < 100 nM

SMILES: Cc1ccc(NC(=O)c2cccc(C(C)(C)C#N)c2)cc1NC(=O)c1sc2nccnc2c1Br [Example 41, 7-bromo-N-(5-(3-(2-cyanopropan-2-yl)benzamido)-2-methylphenyl)thieno[2,3-b]pyrazine-6-carboxamide]
- IC50 ([1]; A-375, 2 h): 100 to 1000 nM
- IC50 [2]: < 10 nM

SMILES: Cc1ccc(NC(=O)c2cccc(C(C)(C)C#N)c2)cc1NC(=O)c1cc2ncc(-c3cccnc3)nc2s1 [Example 68, N-(5-(3-(2-cyanopropan-2-yl)benzamido)-2-methylphenyl)-3-(pyridin-3-yl)thieno[2,3-b]pyrazine-6-carboxamide]
- IC50 [1, 3]: 100 to 1000 nM
- IC50 [2]: < 100 nM

SMILES: Cc1ccc(NC(=O)c2cccc(C(C)(C)C#N)c2)cc1NC(=O)c1sc2ncc(N(C)C)nc2c1N [Example 4, 7-amino-N-(5-(3-(2-cyanopropan-2-yl)benzamido)-2-methylphenyl)-2-(dimethylamino)thieno[2,3-b]pyrazine-6-carboxamide]
- IC50 [1, 4]: < 100 nM
- IC50 [2]: < 10 nM

SMILES: CC(C)(C#N)c1cccc(C(=O)Nc2cc(NC(=O)c3cc4nccnc4s3)c(F)cc2F)c1 [Example 55, N-(5-(3-(2-cyanopropan-2-yl)benzamido)-2,4-difluorophenyl)thieno[2,3-b]pyrazine-6-carboxamide]
- IC50 [1, 5]: 1000 to 10000 nM
- IC50 [2]: < 100 nM

SMILES: Cc1ccc(NC(=O)c2cccc(C(C)(C)C#N)c2)cc1NC(=O)c1sc2ncc(NC3CCOCC3)nc2c1N [Example 11, 7-amino-N-(5-(3-(2-cyanopropan-2-yl)benzamido)-2-methylphenyl)-2-(tetrahydro-2H-pyran-4-ylamino)thieno[2,3-b]pyrazine-6-carboxamide]
- IC50 [1, 4]: < 100 nM
- IC50 [2]: < 100 nM

SMILES: Cc1ccc(NC(=O)c2cccc(C(F)(F)F)c2)cc1NC(=O)c1sc2nccnc2c1N [Example 54, 7-amino-N-(2-methyl-5-(3-(trifluoromethyl)benzamido)phenyl)thieno[2,3-b]pyrazine-6-carboxamide]
- IC50 [1, 4]: < 100 nM
- IC50 [2]: < 10 nM

SMILES: Cc1ccc(NC(=O)c2ccc(C)c(C(F)(F)F)c2)cc1NC(=O)c1cc2nccnc2s1 [Example 31, N-(2-methyl-5-(4-methyl-3-(trifluoromethyl)benzamido)phenyl)thieno[2,3-b]pyrazine-6-carboxamide]
- IC50 [1, 3]: 100 to 1000 nM
- IC50 [2]: < 100 nM

SMILES: Cc1ccc(NC(=O)c2cccc(C3(C#N)CCOCC3)c2)cc1NC(=O)c1cc2nccnc2s1 [Example 36, N-(5-(3-(4-cyanotetrahydro-2H-pyran-4-yl)benzamido)-2-methylphenyl)thieno[2,3-b]pyrazine-6-carboxamide]
- IC50 [1, 5]: 1000 to 10000 nM
- IC50 [2]: < 100 nM
